According to patent US20240197716A1, “TREATMENTS FOR CUSHING'S SYNDROME THAT DO NOT SIGNIFICANTLY AFFECT CARDIAC RHYTHMS” (Corcept Therapeutics Incorporated, priority 2022, published 2024):
Where two headings read alike, the source gives them in different places.

Assays:
[1] = Plasma concentrations in TQT study (LC-MS/MS, non-compartmental PK); assay type: in vivo, human; settings: for Cmax: human, plasma, oral, Day 5, read-out: Geometric Mean Cmax
Method: PK analyses were performed using non-compartmental methods to obtain estimates of the following parameters, where possible: […] Day 1: Cmax, Tmax, AUClast, and AUC0-24; Day 5: Cmax, Tmax, Cmin, AUClast, AUC0-tau, Cavg, FI, and AR. For moxifloxacin: Cmax, Tmax, AUClast, and AUC0-24. […] PK blood sampling for Day 1 was completed prior to dosing on Day 2.

[2] = system: healthy volunteers; assay: First-in-Human SAD/MAD study (NCT03508635), ECG / QTcF; assay type: in vivo; settings: for placebo-corrected predicted change in QTc at Cmax: doses of 50, 150, 250 and 500 mg
Method: A phase 1, 3-part, single-center, First-in-Human study (NCT03508635) included 103 healthy volunteers who received single or multiple ascending doses (SAD/MAD) of relacorilant (up to 500 mg QD) for up to 14 days; 24 received placebo.
In all studies, ECG data were collected and the heart rate-corrected QT interval using Fridericia's formula (QTcF) was calculated. Participants with a family history of or risk factors for torsades de pointes or with a prolonged QT interval at screening were not eligible to participate. Exposure-response analysis of the effect of relacorilant on the heart-rate corrected QT interval (QTc) was conducted using a linear model with an intercept.
In a 3-part, single-center, First-in-Human study (NCT03508635, “phase 1 study”), 103 healthy volunteers received single or multiple ascending doses of relacorilant (up to 500 mg QD) for up to 14 days; 24 received placebo. In a randomized, partial double-blind, crossover Thorough QT study (NCT04795479, “TQT study”), the effect of multiple therapeutic (400 mg QD, n=25) and supra-therapeutic (800 mg QD, n=28) doses of relacorilant on cardiac repolarization was studied in healthy volunteers. A single dose of moxifloxacin (400 mg, n=28) was used as a positive control; 29 participants received placebo. In a single-arm, open-label phase 2 study (NCT02804750, “CS study”), 17 patients with CS received low-dose relacorilant (100-200 mg QD) for 12 weeks and 18 patients received high-dose relacorilant (250-400 mg QD) for 16 weeks. In all studies, ECG data were collected, and the heart rate-corrected QT interval using Fridericia's formula (QTcF) was assessed.
ECG data were available from 42 and 12 participants randomized to relacorilant or placebo, respectively, during the single ascending dose (SAD) phase, and from 34 and 12 participants randomized to relacorilant or placebo, respectively, during the multiple ascending dose (MAD) phase. Baseline mean (SD) QTcF values were within expectations for a healthy population (range […] (11.7) msec to 403.5 (9.4) msec) and were similar in the respective relacorilant and placebo cohorts during the SAD and MAD study phases (see Table 1) (where the value in parentheses indicates standard deviation).

[3] = Effect of food on relacorilant Cmax; assay type: in vivo
[4] = MAD, concentration-QTc linear model, FIG. 2B
[5] = SAD, concentration-QTc linear model, FIG. 2A

Cmax ([1]; 400 mg QD): 1830 ng/mL
Cmax ([1]; 800 mg QD): 2710 ng/mL
observed range of plasma concentrations, upper end ([1]; supra-therapeutic dosing (800 mg)): ~4500 ng/mL
increase of Cmax relative to fasting conditions ([3]; high-fat breakfast): approximately 34%
increase of Cmax relative to fasting conditions ([3]; moderate-fat breakfast): ~41%
Compound: Cn1cc(S(=O)(=O)N2CCC3=Cc4c(cnn4-c4ccc(F)cc4)C[C@]3(C(=O)c3cc(C(F)(F)F)ccn3)C2)cn1 [relacorilant, ((R)-(1-(4-fluorophenyl)-6-((1-methyl-1H-pyrazol-4-yl)sulfonyl)-4,4a,5,6,7,8-hexahydro-1H-pyrazolo[3,4-g]isoquinolin-4a-yl)(4-(trifluoromethyl)pyridine-2-yl)methanone)]
MAD equation ΔΔQTcF intercept [2, 4]: -1.804 ms
MAD equation ΔΔQTcF slope versus relacorilant concentration [2, 4]: -0.00234 ms/ng/mL
placebo-corrected predicted change in QTc at Cmax ([2]; MAD, FIG. 2B): less than 10 ms
mean ΔΔQTcF at any time point ([2]; SAD and MAD study phases, all doses): ≤ 5 ms
SAD equation ΔΔQTcF intercept [2, 5]: -0.005 ms
SAD equation ΔΔQTcF slope versus relacorilant concentration [2, 5]: -0.000588 ms/ng/mL
placebo-corrected predicted change in QTc at Cmax ([2]; SAD, FIG. 2A): less than 5 ms
Mean placebo-corrected ΔQTcF (ΔΔQTcF) at any time point ([2]; any of the dosing groups): ≤ 3 ms
prolonging effect on ΔΔQTcF exceeding the 10-msec threshold ([2]; modeled SAD and MAD results, plasma concentrations up to approximately 4000 ng/ml): excluded
instances of post-dose QTcF interval>450 ms or QTcF interval increase of >30 ms ([2]; up to 500 mg QD): No instances
effect on ECG parameters ([2]; up to 500 mg daily): did not have a clinically relevant adverse effect on ECG parameters
